According to the CheMixHub viscosity set:

Assay: xn = mol fraction of the nth substance listed
Conditions: 101 kPa

CC(C)=O + O
Conditions | viscosity [mPa·s]
293.15 K, x1 = 0.047 | 1.328
293.15 K, x1 = 0.095 | 1.549
293.15 K, x1 = 0.124 | 1.586
293.15 K, x1 = 0.152 | 1.588
293.15 K, x1 = 0.192 | 1.504
293.15 K, x1 = 0.328 | 1.129
293.15 K, x1 = 0.49 | 0.746
293.15 K, x1 = 0.687 | 0.497
293.15 K, x1 = 0.85 | 0.404
298.15 K, x1 = 0.0201 | 1.047
298.15 K, x1 = 0.2 | 1.343
298.15 K, x1 = 0.4 | 0.88
298.15 K, x1 = 0.6 | 0.543
298.15 K, x1 = 0.8 | 0.372
303.15 K, x1 = 0.047 | 1.027
303.15 K, x1 = 0.095 | 1.179
303.15 K, x1 = 0.124 | 1.214
303.15 K, x1 = 0.152 | 1.212
303.15 K, x1 = 0.192 | 1.148
303.15 K, x1 = 0.328 | 0.901
303.15 K, x1 = 0.49 | 0.625
303.15 K, x1 = 0.687 | 0.435
303.15 K, x1 = 0.85 | 0.367
308.15 K, x1 = 0.0499 | 0.9532
308.15 K, x1 = 0.0702 | 1.015
308.15 K, x1 = 0.1 | 1.064
308.15 K, x1 = 0.12 | 1.08
308.15 K, x1 = 0.1499 | 1.084
308.15 K, x1 = 0.1701 | 1.069
308.15 K, x1 = 0.1999 | 1.039
308.15 K, x1 = 0.22 | 1.012
308.15 K, x1 = 0.2499 | 0.9681
308.15 K, x1 = 0.2701 | 0.9345
308.15 K, x1 = 0.3001 | 0.8823
308.15 K, x1 = 0.3499 | 0.7933
308.15 K, x1 = 0.4 | 0.7101
308.15 K, x1 = 0.4502 | 0.6353
308.15 K, x1 = 0.5001 | 0.5698
308.15 K, x1 = 0.6 | 0.4627
308.15 K, x1 = 0.7 | 0.3849
308.15 K, x1 = 0.7999 | 0.3262
308.15 K, x1 = 0.9 | 0.2729
313.15 K, x1 = 0.0201 | 0.7526
313.15 K, x1 = 0.047 | 0.826
313.15 K, x1 = 0.0499 | 0.8529
313.15 K, x1 = 0.0702 | 0.9032
313.15 K, x1 = 0.095 | 0.929
313.15 K, x1 = 0.1 | 0.9489
313.15 K, x1 = 0.12 | 0.961
313.15 K, x1 = 0.124 | 0.945
313.15 K, x1 = 0.1499 | 0.9659
313.15 K, x1 = 0.152 | 0.955
313.15 K, x1 = 0.1701 | 0.9492
313.15 K, x1 = 0.192 | 0.908
313.15 K, x1 = 0.1999 | 0.9232
313.15 K, x1 = 0.22 | 0.9029
313.15 K, x1 = 0.2499 | 0.8658
313.15 K, x1 = 0.2701 | 0.8358
313.15 K, x1 = 0.3001 | 0.792
313.15 K, x1 = 0.328 | 0.737
313.15 K, x1 = 0.3499 | 0.7155
313.15 K, x1 = 0.4 | 0.6429
313.15 K, x1 = 0.4502 | 0.5785
313.15 K, x1 = 0.49 | 0.536
313.15 K, x1 = 0.5001 | 0.5234
313.15 K, x1 = 0.6 | 0.4276
313.15 K, x1 = 0.687 | 0.386
313.15 K, x1 = 0.7 | 0.361
313.15 K, x1 = 0.7999 | 0.302
313.15 K, x1 = 0.85 | 0.333
313.15 K, x1 = 0.9 | 0.2597
318.15 K, x1 = 0.0201 | 0.6793
318.15 K, x1 = 0.0499 | 0.7678
318.15 K, x1 = 0.0702 | 0.8166
318.15 K, x1 = 0.1 | 0.8463
318.15 K, x1 = 0.12 | 0.8495
318.15 K, x1 = 0.1499 | 0.8555
318.15 K, x1 = 0.1701 | 0.8465
318.15 K, x1 = 0.1999 | 0.8249
318.15 K, x1 = 0.22 | 0.8044
318.15 K, x1 = 0.2499 | 0.7773
318.15 K, x1 = 0.2701 | 0.7529
318.15 K, x1 = 0.3001 | 0.7134
318.15 K, x1 = 0.3499 | 0.6478
318.15 K, x1 = 0.4 | 0.5851
318.15 K, x1 = 0.4502 | 0.5251
318.15 K, x1 = 0.5001 | 0.476
318.15 K, x1 = 0.6 | 0.3869
318.15 K, x1 = 0.7 | 0.3317
318.15 K, x1 = 0.7999 | 0.2774
318.15 K, x1 = 0.9 | 0.2431
323.15 K, x1 = 0.047 | 0.746
323.15 K, x1 = 0.095 | 0.834
323.15 K, x1 = 0.124 | 0.853
323.15 K, x1 = 0.152 | 0.859
323.15 K, x1 = 0.192 | 0.808
323.15 K, x1 = 0.328 | 0.682
323.15 K, x1 = 0.49 | 0.499
323.15 K, x1 = 0.687 | 0.367
323.15 K, x1 = 0.85 | 0.32
